According to patent US7230028B2, “Dimeric compounds and their use as anti-viral agents” (priority 2001, dated 2007):
Values after ≈ are worked out from the molar mass of the structure shown. Values joined by “and” are separate entries in the source; they are usually repeats but may differ in a detail not shown here. Identical values can stand only once. Counter-ions that a name gives are not always drawn. Like-named read-outs stand apart in the source and are kept apart here.

Key:
[1] = Rat lung retention assay (intra-tracheal dosing); type: in vivo; settings: for PCT AU01/01128 compound 3 ng/g / (cmpd): individual animal; for Mean (cmpd) / (cmpd): 0.1 mg/kg intra-tracheal; for (cmpd): bis(trifluoroacetic acid salt)
Description: Rodents are anaesthetised and dosed with compound of interest by the intra-tracheal route at a dose volume of 0.8 ml/kg. The rodent is then held in the vertical position until full recovery is achieved. […] Any analytical method suitable for detection of this type of compound may be used. The time at which levels of compound fall below the sensitivity of the analytical techniques identified will determine the residency time of the compound in lung tissue.
Please note that all experiments included a co-dosed internal standard, namely compound 3 of International Patent Publication No. WO 02/20514, to permit comparison. The data are expressed as a ratio with respect to this compound, the structure of which is shown below.

[2] = system: Influenza A/Sydney/5/97; assay: Cytopathic effect (CPE) assay, inhibition of influenza virus replication in MDCK cells; type: cell-based
[3] = system: Influenza B/Harbin/7/95; assay: as above; type: cell-based
[4] = system: A/Sydney/5/97 BVLV015 (H3N2); assay: Plaque reduction assay (PRA) in MDCK cells; type: cell-based, influenza A H3N2; settings: A/Sydney/5/97 (H3N2)
Description: (§1) Madin Darby Canine Kidney (MDCK) cells are seeded into six well tissue culture plates and grown to confluency via standard methods. Influenza viruses are diluted in a minimal volume of phosphate buffered saline supplemented with 0.2% bovine serum albumin to yield an estimated titre of 50–100 plaque forming units (pfu) per well. After adsorption to the MDCK cells for one hour at 37° C. in a 5% CO2 atmosphere the viral inocula is aspirated and replaced with viral growth media (minimal Eagle's media supplemented with BSA, trypsin and insulin/transferrin/selenium at optimal concentrations) containing sufficient agar or agarose (generally 1–2%) to cause the media to gel at room temperature and at 37° C. in a 5% CO2 atmosphere until plaques develop (generally 2–4 days). Plaques can be visualised with a suitable stain (e.g. 0.4% crystal violet in formal saline) before counting.

[5] = system: B/Victoria/1/67; assay: Plaque reduction assay (PRA) in MDCK cells; type: cell-based, influenza B; settings: bis(trifluoroacetic acid salt)
[6] = system: B/Yamanashi/166/98 BVLV007; assay: Plaque reduction assay (PRA) in MDCK cells; type: cell-based; settings: for EC50: Influenza B virus, MDCK
[7] = system: A/Bayern/7/95 BVL006 (H1N1); assay: Plaque reduction assay (PRA) in MDCK cells; type: cell-based, influenza A H1N1; settings: A/Bayern/7/95 (H1N1)
Description: as §1

[8] = system: A/WSN/33 BVLV09 (H1N1); assay: Plaque reduction assay (PRA) in MDCK cells; type: cell-based, influenza A H1N1; settings: A/WSN/33 (H1N1)
Description: as §1

[9] = system: A/New Caledonia/20/99 BVLV008 (H1N1); assay: Plaque reduction assay (PRA) in MDCK cells; type: cell-based; settings: for EC50: Influenza A virus
[10] = system: A/Panama/2007/99 BVLV008 (H3N2); assay: Plaque reduction assay (PRA) in MDCK cells; type: cell-based; settings: for EC50: Influenza A virus
[11] = system: B/Hong Kong/5/72 BVLV012; assay: Plaque reduction assay (PRA) in MDCK cells; type: cell-based, influenza B; settings: for EC50: Influenza B virus, MDCK, read-out: EC50 PRA B/HongK
Description: as §1

[12] = system: A/Victoria/3/75 BVLV017 (H3N2); assay: Plaque reduction assay (PRA) in MDCK cells; type: cell-based; settings: for EC50: Influenza A virus
[13] = rat lung, co-dosed internal standard, 48 hrs
[14] = plaque reduction, B/Yamanashi/166/98
[15] = H1N1, MDCK, read-out: EC50 PRA A/New, plaque reduction, A/New Caledonia/20/99 (H1N1)
[16] = read-out: EC50 PRA B/Yam, plaque reduction, B/Yamanashi/166/98
[17] = rat, in vivo, 0.1 mg/kg, Mean (cmpd) ng/g

CC(=O)N[C@H]1[C@H]([C@H](OC(=O)NCCCCCCNC(=O)CN(CCN(CC(=O)NCCCCCCNC(=O)O[C@H](C(O)CO)[C@@H]2OC(C(=O)O)=C[C@H](NC(=N)N)[C@H]2NC(C)=O)CC(=O)NCCCCCCNC(=O)O[C@H](C(O)CO)[C@@H]2OC(C(=O)O)=C[C@H](NC(=N)N)[C@H]2NC(C)=O)CC(=O)NCCCCCCNC(=O)O[C@H](C(O)CO)[C@@H]2OC(C(=O)O)=C[C@H](NC(=N)N)[C@H]2NC(C)=O)[C@H](O)CO)OC(C(=O)O)=C[C@@H]1NC(=N)N (stereo partly drawn) [PCT AU01/01128 compound 3]
Mean (PCT AU01/01128 compound 3) [1, 13]: 1478 ng/g and 1368 ng/g and 1413 ng/g | PCT AU01/01128 compound 3 ng/g [1, 13]: 1098 ng/g and 1352 ng/g and 681 ng/g and 784 ng/g and 2046 ng/g and 1605 ng/g and 698 ng/g and 1901 ng/g and 1507 ng/g and 655 ng/g and 1840 ng/g and 1744 ng/g | PCT AU01/01128 compound 3 ng/g ([1]; rat lung, co-dosed internal standard, 168 hrs): 580 ng/g and 829 ng/g and 636 ng/g and 524 ng/g and 367 ng/g and 632 ng/g and 242 ng/g (2×) and 216 ng/g and 815 ng/g and 925 ng/g and 512 ng/g | concentration at 48 h ([1]; rat, in vivo, rat lung, co-dosed internal standard, 48 hrs, read-out: Mean (PCT AU01/01128 compound 3)): 1040 ng/g

CC(=O)N[C@H]1[C@H]([C@H](OC(=O)NCCCCCCCCCCCNC(=O)O[C@@H]([C@@H]2OC(C(=O)O)=C[C@H](NC(=N)N)[C@H]2NC(C)=O)[C@H](O)CO)[C@H](O)CO)OC(C(=O)O)=C[C@@H]1NC(=N)N.O=C(O)C(F)(F)F.O=C(O)C(F)(F)F [Example 2, (2R,3R,4S)-3-(acetylamino)-2-{(1R,19R,20R)-19-((2R,3R,4S)-3-(acetylamino)-4-{[amino(imino)methyl]amino}-6-carboxy-3,4-dihydro-2H-pyran-2-yl)-1-[(1R)-1,2-dihydroxyethyl]-20,21-dihydroxy-3,17-dioxo-2,18-dioxa-4,16-diazahenicos-1-yl}-4-{[amino(imino)methyl]amino}-3,4-dihydro-2H-pyran-6-carboxylic acid bis(trifluoroacetic acid salt)]
ID50 A/Sydney/5/97 ([2]; up to 72 hours, MTT): 0.0001 µg/mL | ID50 B/Harbin/7/95 ([3]; up to 72 hours, MTT): 0.0001 µg/mL | EC50 PRA A/Syd [4]: <0.0001 ng/mL | EC50 PRA B/Vic [5]: 0.04 ng/mL | EC50 PRA B/Yam [6, 14]: <0.0001 ng/mL

CC(=O)N[C@H]1[C@H]([C@H](OC(=O)NCCCCCCCCCCCCCCNC(=O)O[C@@H]([C@@H]2OC(C(=O)O)=C[C@H](NC(=N)N)[C@H]2NC(C)=O)[C@H](O)CO)[C@H](O)CO)OC(C(=O)O)=C[C@@H]1NC(=N)N.O=C(O)C(F)(F)F.O=C(O)C(F)(F)F [Example 5]
ID50 A/Sydney/5/97 ([2]; up to 72 hours, MTT): 0.0001 µg/mL | ID50 B/Harbin/7/95 ([3]; molar): 0.26 M | ID50 B/Harbin/7/95 ([3]; up to 72 hours, MTT): 0.0003 µg/mL | EC50 PRA A/Bay [7]: <0.0001 ng/mL | EC50 PRA A/WSN [8]: <0.0001 ng/mL | EC50 PRA A/Syd [4]: 0.032 ng/mL | EC50 PRA A/New ([9]; plaque reduction, A/New Caledonia/20/99 (H1N1)): <0.0001 ng/mL | EC50 PRA A/Pan ([10]; plaque reduction, A/Panama/2007/99 (H3N2)): 0.032 ng/mL | EC50 PRA B/Vic [5]: 0.1 ng/mL | EC50 PRA B/HongK [11]: 0.37 ng/mL | EC50 PRA B/Yam [6, 14]: <0.0001 ng/mL | Mean (cmpd) ([1]; rat lung, 48 hrs): 4803 ng/g | Mean (cmpd) ([1]; rat lung, 168 hrs): 1798 ng/g | (cmpd) ([1]; rat lung, 48 hrs, 0.1 mg/kg): 3044 ng/g and 6268 ng/g and 5097 ng/g | (cmpd) ([1]; rat lung, 168 hrs, 0.1 mg/kg): 2750 ng/g and 1255 ng/g and 1388 ng/g

NC12CC3CC(CC(C3)C1)C2 [Amantadine, reference compound]
EC50 ([12]; H3N2, MDCK, read-out: EC50 PRA A/Vic, plaque reduction, A/Victoria/3/75 (H3N2)): 220 ng/mL (≈ 1.45 µM) | EC50 [9, 15]: 11 ng/mL (≈ 0.0727 µM) | EC50 [11]: > 10000 ng/mL | EC50 [6, 16]: 2060 ng/mL (≈ 13.6 µM)

CC(=O)N[C@H]1[C@H]([C@H](OC(=O)NCCCCCCCCCCNC(=O)O[C@@H]([C@@H]2OC(C(=O)O)=C[C@H](NC(=N)N)[C@H]2NC(C)=O)[C@H](O)CO)[C@H](O)CO)OC(C(=O)O)=C[C@@H]1NC(=N)N.O=C(O)C(F)(F)F.O=C(O)C(F)(F)F [Example 1, (2R,3R,4S)-3-(acetylamino)-2-{(1R,18R,19R)-18-((2R,3R,4S)-3-(acetylamino)-4-{[amino(imino)methyl]amino}-6-carboxy-3,4-dihydro-2H-pyran-2-yl)-1-[(1R)-1,2-dihydroxyethyl]-19,20-dihydroxy-3,16-dioxo-2,17-dioxa-4,15-diazaicos-1-yl}-4-{[amino(imino)methyl]amino}-3,4-dihydro-2H-pyran-6-carboxylic acid bis(trifluoroacetic acid salt)]
ID50 A/Sydney/5/97 ([2]; up to 72 hours, MTT): 0.0002 µg/mL | ID50 B/Harbin/7/95 ([3]; up to 72 hours, MTT): 0.0001 µg/mL

CC(=O)N[C@H]1[C@H]([C@H](OC(=O)NCCCCCCCCCCCCCNC(=O)O[C@@H]([C@@H]2OC(C(=O)O)=C[C@H](NC(=N)N)[C@H]2NC(C)=O)[C@H](O)CO)[C@H](O)CO)OC(C(=O)O)=C[C@@H]1NC(=N)N [Example 4, (2R,3R,4S)-3-(acetylamino)-2-{(1R,21R,22R)-21-((2R,3R,4S)-3-(acetylamino)-4-{[amino(imino)methyl]amino}-6-carboxy-3,4-dihydro-2H-pyran-2-yl)-1-[(1R)-1,2-dihydroxyethyl]-22,23-dihydroxy-3,19-dioxo-2,20-dioxa-4,18-diazatricos-1-yl}-4-{[amino(imino)methyl]amino}-3,4-dihydro-2H-pyran-6-carboxylic acid bis(trifluoroacetic acid salt)]
ID50 A/Sydney/5/97 ([2]; up to 72 hours, MTT): 0.0001 µg/mL | ID50 B/Harbin/7/95 ([3]; up to 72 hours, MTT): 0.0001 µg/mL | EC50 ([8]; Influenza A virus, MDCK): < 0.0001 ng/mL | EC50 ([4]; Influenza A virus, MDCK, read-out: EC50 PRA A/Syd): < 0.0001 ng/mL | EC50 [9, 15]: 0.043 ng/mL | EC50 ([10]; H3N2, MDCK, read-out: EC50 PRA A/Pan, plaque reduction, A/Panama/2007/99 (H3N2)): < 1e-05 ng/mL | EC50 [11]: 0.06 ng/mL | EC50 [6, 16]: < 0.0001 ng/mL | Ratio Mean (lung) (cmpd)/PCT AU01/01128 compound 3 ([1]; rat, in vivo, 0.1 mg/kg, 48 h): 1.70 | Ratio Mean (lung) (cmpd)/PCT AU01/01128 compound 3 ([1]; rat, in vivo, 0.1 mg/kg, 168 h): 1.48 | concentration at 48 h [1, 17]: 1770 ng/g | concentration at 168 h [1, 17]: 756 ng/g

CCOC(=O)C1=C[C@@H](OC(CC)CC)[C@H](NC(C)=O)[C@@H](N)C1 [Oseltamivir]
EC50 ([12]; MDCK, plaque reduction, A/Victoria/3/75 (H3N2), read-out: EC50 PRA A/Vic): 0.11 ng/mL (≈ 0.000352 µM) | EC50 ([9]; MDCK, plaque reduction, A/New Caledonia/20/99 (H1N1), read-out: EC50 PRA A/New): 0.23 ng/mL (≈ 0.000736 µM) | EC50 ([10]; MDCK, plaque reduction, A/Panama/2007/99 (H3N2), read-out: EC50 PRA A/Pan): 0.3 ng/mL (≈ 0.00096 µM) | EC50 [11]: 32 ng/mL (≈ 0.102 µM) | EC50 ([6]; plaque reduction, B/Yamanashi/166/98, read-out: EC50 PRA B/Yam): 0.7 ng/mL (≈ 0.00224 µM)

CC(=O)N[C@H]1[C@H]([C@H](OC(=O)NCCCCCCCCCCCCNC(=O)O[C@@H]([C@@H]2OC(C(=O)O)=C[C@H](NC(=N)N)[C@H]2NC(C)=O)[C@H](O)CO)[C@H](O)CO)OC(C(=O)O)=C[C@@H]1NC(=N)N.O=C(O)C(F)(F)F.O=C(O)C(F)(F)F [Example 3, (2R,3R,4S)-3-(acetylamino)-2-{(1R,20R,21R)-20-((2R,3R,4S)-3-(acetylamino)-4-{[amino(imino)methyl]amino}-6-carboxy-3,4-dihydro-2H-pyran-2-yl)-1-[(1R)-1,2-dihydroxyethyl]-21,22-dihydroxy-3,18-dioxo-2,19-dioxa-4,17-diazadocos-1-yl}-4-{[amino(imino)methyl]amino}-3,4-dihydro-2H-pyran-6-carboxylic acid bis(trifluoroacetic acid salt)]
ID50 A/Sydney/5/97 ([2]; molar): 0.087 M | ID50 A/Sydney/5/97 ([2]; up to 72 hours, MTT): 0.0001, 0.0001 μg/ml | ID50 B/Harbin/7/95 ([3]; up to 72 hours, MTT): 0.0001, 0.0001 μg/ml | EC50 PRA A/Vic ([12]; plaque reduction, A/Victoria/3/75 (H3N2)): 0.0023 ng/mL | EC50 PRA B/Vic [5]: 0.01 ng/mL | EC50 PRA B/HongK [11]: <0.0001 ng/mL | Mean (cmpd) ([1]; rat lung, 48 hrs): 1117 ng/g | Mean (cmpd) ([1]; rat lung, 168 hrs): 376 ng/g | (cmpd) ([1]; rat lung, 48 hrs, 0.1 mg/kg): 591 ng/g and 1845 ng/g and 914 ng/g | (cmpd) ([1]; rat lung, 168 hrs, 0.1 mg/kg): 471 ng/g and 546 ng/g and 111 ng/g
